In ChEMBL document CHEMBL1151588, “1,2-diaminobenzimidazoles : Selective inhibitors of nitric oxide synthase derived from aminoguanidine” (Bioorg Med Chem Lett, 1995):

What was measured:
[1] = target: T1, Nitric oxide synthase 1 (Rattus norvegicus, UniProt P29476); test: Tested to inhibit the conversion of [3H]L-arginine to [3H]L-citrulline catalyzed by neuronal NOS from rat cerebellum.; type: tissue-based
[2] = target: T2, Nitric oxide synthase, inducible (Homo sapiens, UniProt P35228); test: Tested to inhibit the conversion of [3H]-L-arginine to [3H]L-citrulline catalyzed by inducible NOS from human DLD-1 cells at concentration below 100 uM; No significant inhibition; type: cell-based
T2 sequence (P35228 whole entry): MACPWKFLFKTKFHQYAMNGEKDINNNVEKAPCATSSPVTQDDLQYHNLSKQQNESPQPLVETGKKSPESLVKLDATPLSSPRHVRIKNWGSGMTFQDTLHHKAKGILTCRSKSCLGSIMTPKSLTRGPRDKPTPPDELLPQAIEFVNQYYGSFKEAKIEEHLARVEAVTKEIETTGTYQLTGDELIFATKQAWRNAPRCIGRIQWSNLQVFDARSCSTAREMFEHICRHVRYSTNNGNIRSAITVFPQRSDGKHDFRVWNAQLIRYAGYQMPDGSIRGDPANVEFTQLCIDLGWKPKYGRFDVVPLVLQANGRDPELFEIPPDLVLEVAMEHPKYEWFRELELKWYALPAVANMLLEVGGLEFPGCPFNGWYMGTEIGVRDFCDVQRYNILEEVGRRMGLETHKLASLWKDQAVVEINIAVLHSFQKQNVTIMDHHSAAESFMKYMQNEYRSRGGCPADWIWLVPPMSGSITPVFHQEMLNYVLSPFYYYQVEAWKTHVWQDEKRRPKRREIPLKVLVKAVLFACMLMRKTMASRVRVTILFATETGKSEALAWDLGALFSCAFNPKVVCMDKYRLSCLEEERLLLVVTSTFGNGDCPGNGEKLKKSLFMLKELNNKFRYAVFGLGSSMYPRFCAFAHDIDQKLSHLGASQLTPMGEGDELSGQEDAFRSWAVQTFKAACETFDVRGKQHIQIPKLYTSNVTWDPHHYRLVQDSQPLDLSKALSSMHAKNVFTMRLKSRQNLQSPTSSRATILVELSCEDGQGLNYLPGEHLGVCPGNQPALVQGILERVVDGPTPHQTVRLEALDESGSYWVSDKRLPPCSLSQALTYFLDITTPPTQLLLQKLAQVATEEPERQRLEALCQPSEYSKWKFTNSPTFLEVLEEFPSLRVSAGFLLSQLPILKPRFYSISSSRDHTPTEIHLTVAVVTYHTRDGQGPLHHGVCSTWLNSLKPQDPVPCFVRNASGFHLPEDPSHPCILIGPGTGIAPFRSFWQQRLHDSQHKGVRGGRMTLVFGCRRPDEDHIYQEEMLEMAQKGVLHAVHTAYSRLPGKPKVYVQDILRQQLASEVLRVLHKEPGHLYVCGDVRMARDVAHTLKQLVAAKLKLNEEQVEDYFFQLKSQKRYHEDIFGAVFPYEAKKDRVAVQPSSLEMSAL

[3] = target: T3, Nitric oxide synthase, inducible (Mus musculus, UniProt P29477); test: Tested to inhibit the conversion of [3H]L-arginine to [3H]L-citrulline catalyzed by inducible NOS from mouse macrophage J774 cells at concentration below 100 uM; No significant inhibition; type: cell-based
T3 sequence (P29477 whole entry): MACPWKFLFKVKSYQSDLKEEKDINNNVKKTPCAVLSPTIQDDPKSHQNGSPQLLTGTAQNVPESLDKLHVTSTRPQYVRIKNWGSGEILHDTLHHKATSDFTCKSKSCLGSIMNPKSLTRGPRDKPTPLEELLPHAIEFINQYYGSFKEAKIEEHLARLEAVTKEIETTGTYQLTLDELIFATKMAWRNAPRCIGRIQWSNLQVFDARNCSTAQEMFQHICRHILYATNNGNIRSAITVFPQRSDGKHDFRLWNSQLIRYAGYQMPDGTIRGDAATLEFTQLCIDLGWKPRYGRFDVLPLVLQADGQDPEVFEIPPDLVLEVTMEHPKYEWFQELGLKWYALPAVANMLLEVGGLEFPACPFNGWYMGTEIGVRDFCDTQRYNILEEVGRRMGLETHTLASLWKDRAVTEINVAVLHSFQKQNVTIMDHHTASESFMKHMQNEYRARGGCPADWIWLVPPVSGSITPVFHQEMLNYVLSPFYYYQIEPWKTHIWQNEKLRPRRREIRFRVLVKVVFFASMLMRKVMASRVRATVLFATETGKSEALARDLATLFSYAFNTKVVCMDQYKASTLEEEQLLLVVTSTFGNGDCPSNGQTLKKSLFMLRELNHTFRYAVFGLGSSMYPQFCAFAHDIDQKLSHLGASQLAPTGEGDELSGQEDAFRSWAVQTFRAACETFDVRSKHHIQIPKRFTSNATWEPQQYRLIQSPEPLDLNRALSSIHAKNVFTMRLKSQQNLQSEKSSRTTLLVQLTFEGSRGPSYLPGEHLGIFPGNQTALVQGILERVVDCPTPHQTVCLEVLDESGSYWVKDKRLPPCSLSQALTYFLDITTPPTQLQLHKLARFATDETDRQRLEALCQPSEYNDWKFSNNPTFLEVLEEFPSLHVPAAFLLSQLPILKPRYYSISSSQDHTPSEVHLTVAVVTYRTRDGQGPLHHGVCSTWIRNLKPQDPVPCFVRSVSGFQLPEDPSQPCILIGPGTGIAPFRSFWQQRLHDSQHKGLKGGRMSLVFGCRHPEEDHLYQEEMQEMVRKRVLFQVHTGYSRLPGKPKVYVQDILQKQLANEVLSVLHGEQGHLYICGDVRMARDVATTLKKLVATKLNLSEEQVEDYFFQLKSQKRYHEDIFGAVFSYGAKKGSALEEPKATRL

[4] = target: T4, Nitric oxide synthase 3 (Homo sapiens, UniProt P29474); test: Tested to inhibit the conversion of [3H]L-arginine to [3H]L-citrulline catalyzed by endothelial NOS from human umbilical vein endothelial cells; No significant inhibition; type: cell-based; conditions: endothelial cell
T4 sequence (P29474 whole entry): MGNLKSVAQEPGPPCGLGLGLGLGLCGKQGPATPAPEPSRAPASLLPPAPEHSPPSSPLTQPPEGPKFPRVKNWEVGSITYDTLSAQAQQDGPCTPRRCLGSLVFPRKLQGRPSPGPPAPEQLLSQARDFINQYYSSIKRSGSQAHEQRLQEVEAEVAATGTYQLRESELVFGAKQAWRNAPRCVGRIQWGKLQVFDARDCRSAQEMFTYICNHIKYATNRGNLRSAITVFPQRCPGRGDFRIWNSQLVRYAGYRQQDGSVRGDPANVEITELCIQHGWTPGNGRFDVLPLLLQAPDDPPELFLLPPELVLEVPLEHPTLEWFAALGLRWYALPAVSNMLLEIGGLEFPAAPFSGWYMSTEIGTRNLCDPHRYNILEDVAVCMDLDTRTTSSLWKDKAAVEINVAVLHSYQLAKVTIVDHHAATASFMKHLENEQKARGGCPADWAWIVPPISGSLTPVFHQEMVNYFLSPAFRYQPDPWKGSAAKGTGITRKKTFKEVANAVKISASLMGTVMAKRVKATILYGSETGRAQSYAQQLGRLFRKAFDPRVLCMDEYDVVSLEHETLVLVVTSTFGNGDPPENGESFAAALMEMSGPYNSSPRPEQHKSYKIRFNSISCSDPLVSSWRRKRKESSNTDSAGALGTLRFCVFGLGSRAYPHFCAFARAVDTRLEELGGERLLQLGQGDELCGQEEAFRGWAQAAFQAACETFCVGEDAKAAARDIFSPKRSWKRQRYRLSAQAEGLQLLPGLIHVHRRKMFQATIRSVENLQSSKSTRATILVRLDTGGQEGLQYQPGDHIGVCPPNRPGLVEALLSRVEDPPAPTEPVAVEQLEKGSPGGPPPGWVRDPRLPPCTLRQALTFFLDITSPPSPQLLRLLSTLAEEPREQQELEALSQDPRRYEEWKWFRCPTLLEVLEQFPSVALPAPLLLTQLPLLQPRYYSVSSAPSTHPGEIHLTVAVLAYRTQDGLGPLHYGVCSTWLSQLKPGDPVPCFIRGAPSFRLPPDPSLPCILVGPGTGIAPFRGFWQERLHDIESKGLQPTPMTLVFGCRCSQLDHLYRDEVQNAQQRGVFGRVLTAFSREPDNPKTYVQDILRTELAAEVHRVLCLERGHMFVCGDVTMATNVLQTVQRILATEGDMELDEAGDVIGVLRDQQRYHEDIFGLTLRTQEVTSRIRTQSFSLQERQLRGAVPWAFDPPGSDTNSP

[5] = target: T1, Nitric oxide synthase 1; test: Tested to inhibit the conversion of [3H]L-arginine to [3H]L-citrulline catalyzed by neuronal NOS from rat cerebellum at concentration below 100 uM; No significant inhibition
[6] = target: T3, Nitric oxide synthase, inducible; test: Tested to inhibit the conversion of [3H]L-arginine to [3H]L-citrulline catalyzed by inducible NOS from mouse macrophage J774 cells; type: cell-based
[7] = target: T2, Nitric oxide synthase, inducible; test: Tested to inhibit the conversion of [3H]L-arginine to [3H]L-citrulline catalyzed by inducible NOS from human DLD-1 cells.; type: cell-based
[8] = target: T4, Nitric oxide synthase 3; test: Tested to inhibit the conversion of [3H]L-arginine to [3H]L-citrulline catalyzed by endothelial NOS from human umbilical vein endothelial cells at concentration below 100 uM; No significant inhibition; type: cell-based; conditions: endothelial cell

T1 sequence (P29476 whole entry): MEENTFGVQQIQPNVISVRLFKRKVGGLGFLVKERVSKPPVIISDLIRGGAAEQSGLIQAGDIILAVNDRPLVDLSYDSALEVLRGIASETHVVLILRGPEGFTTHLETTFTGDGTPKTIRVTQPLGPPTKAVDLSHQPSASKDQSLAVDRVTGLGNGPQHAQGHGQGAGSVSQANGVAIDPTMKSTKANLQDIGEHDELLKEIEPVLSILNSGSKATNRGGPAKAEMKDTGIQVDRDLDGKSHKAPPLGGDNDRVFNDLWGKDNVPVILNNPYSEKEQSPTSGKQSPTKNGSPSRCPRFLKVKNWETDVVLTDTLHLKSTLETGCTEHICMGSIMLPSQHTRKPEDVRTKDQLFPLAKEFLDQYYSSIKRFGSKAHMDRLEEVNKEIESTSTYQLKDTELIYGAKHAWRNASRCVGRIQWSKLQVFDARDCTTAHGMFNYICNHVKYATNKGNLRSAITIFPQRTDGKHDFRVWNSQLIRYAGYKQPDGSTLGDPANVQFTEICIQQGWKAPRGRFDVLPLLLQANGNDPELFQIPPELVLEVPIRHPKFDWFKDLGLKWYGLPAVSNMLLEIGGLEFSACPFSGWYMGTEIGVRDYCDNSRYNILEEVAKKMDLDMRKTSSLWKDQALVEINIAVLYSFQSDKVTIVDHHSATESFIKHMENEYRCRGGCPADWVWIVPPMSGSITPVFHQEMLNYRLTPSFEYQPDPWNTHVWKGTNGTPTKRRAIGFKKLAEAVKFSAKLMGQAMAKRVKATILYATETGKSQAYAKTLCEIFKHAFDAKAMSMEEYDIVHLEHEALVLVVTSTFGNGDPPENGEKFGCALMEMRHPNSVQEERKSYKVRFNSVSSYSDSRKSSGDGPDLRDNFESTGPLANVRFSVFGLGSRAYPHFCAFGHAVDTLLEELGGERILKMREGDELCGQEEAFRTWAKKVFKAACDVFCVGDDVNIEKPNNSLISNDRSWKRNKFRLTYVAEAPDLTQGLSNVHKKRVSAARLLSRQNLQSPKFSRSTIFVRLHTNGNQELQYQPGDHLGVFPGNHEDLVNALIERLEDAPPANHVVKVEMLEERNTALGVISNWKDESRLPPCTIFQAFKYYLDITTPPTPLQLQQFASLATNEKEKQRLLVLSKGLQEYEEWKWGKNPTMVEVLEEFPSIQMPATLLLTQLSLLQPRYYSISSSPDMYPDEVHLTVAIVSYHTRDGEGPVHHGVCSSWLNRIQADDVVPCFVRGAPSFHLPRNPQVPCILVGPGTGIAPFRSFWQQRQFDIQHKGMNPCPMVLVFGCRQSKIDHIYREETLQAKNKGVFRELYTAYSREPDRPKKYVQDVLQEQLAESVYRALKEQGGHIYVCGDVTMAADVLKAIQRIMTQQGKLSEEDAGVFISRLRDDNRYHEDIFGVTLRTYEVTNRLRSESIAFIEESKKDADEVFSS

Row | IC50 [1] [µM] | IC50 [2] | IC50 [3] | IC50 [4] | IC50 [6] [µM] | IC50 [7] [µM] | SMILES | IC50 [5] | IC50 [8]
1 | 5.8 | Not Active | Not Active | Not Active | – | – | CNn1c(N)nc2ccccc21 | – | –
2 | 77 | – | – | – | 31 | 25 | Nc1nc2ccccc2n1N | – | Not Active
3 | – | – | – | – | 20 | 24 | O=[N+]([O-])c1cccc2cn[nH]c12 [7-NITROINDAZOLE] | – | –

Row | SMILES | IC50 [1] [µM] | IC50 [2] | IC50 [3] | IC50 [4] | IC50 [6] [µM] | IC50 [7] [µM] | IC50 [5] | IC50 [8]
4 | N=C(N)NN [PIMAGEDINE] | – | – | – | – | 9 | 54 | Not Active | Not Active
